Results as given in patent US6127136A, “Detection of dioxin-like compounds by detection of transformed Ah receptor/ARNT complex” (Paracelsian, Inc., priority 1996, dated 2000).

Tests used:
[1] = test system: transformed DRE/AhR/ARNT complex; assay: size exclusion column of DRE/AhR/ARNT complex followed by SDS-PAGE western blot; assay type: biochemical, guinea pig (hepatic cytosol)
Experimental: Size-exclusion column: 10 mL bed volume sephacryl S-100-HR (Sigma, St. Louis, Mo.) packed in Econopac column (Biorad cat. no. 732-1010), equilibrated in HEDG plus 200 mM NaCl. Column was hooked up to a peristaltic pump. Flow rate was 0.5 mL/min. The size exclusion column outlet was attached to a HPLC fluorimeter set at excitation 494 nm and emmission 520 nm to detect fluorescein. DRE used was F-ERD oligo (SEQ. ID. #4) and DRE-D oligo (SEQ. ID. #1) hybridized as described above. Cytosol was prepared as described above. Cytosol was dosed with 1:1000 v/v DMSO (-) or 1:1000 v/v 10 uM 2,3,7,8-tetrachlorodibenzo-p-dioxin in DMSO (+).
Samples were incubated for 2 hours at room temperature as described above to achieve transformation/binding events then put on ice. The entire A sample was loaded onto the Size Exclusion Column and chromatography developed at a flow rate of 0.5 ml/min. Eluant fractions were collected at 2 min intervals (1 mL/fraction). The protocol was repeated for samples B,C,D.
The fluorimeter readings went offscale and usable readings for the fluorescent DRE were not possible. 200 uL subaliquots of fractions 3-10 were submitted to Sodium Dodecyl Sulfate--PolyAcrylamide Gel Electrophoresis (SDS-PAGE) followed by western blotting. Blots of fractions from samples A and B were probed with anti-ARNT (1:200) and anti-rabbit/alkaline phosphatase (1: 1000) and developed with BCIP/NBT. […]

[2] = target: transformed Ah receptor/ARNT complex (Cavia porcellus, UniProt Q6J287); assay: sandwich ELISA detecting transformed Ah receptor/ARNT complex, DRE and anti-ARNT dilutions; assay type: biochemical, guinea pig (hepatic cytosol); set-up: from tissue; host or cells: hepatic cytosol of male Hartley guinea pigs (animals from Cornell Research Animal Resources)
Experimental: Working dilution of anti-ARNT was diluted (1:200, 50 uL in 10 mL) in PBS plus 0.02% tween 20 plus 0.1% bovine serum albumin. Working dilution of anti-Rabbit/alkaline phosphatase (Sigma, St. Louis, Mo.) was prepared by diluting 20 uL into 20 mL PBS plus 0.02% tween 20 plus 0.1% bovine serum albumin to make a 1:1000 dilution. Diethanolamine buffer was prepared by dissolving 0.4 g Magnesium chloride hexahydrate, 0.8 g sodium azide, 338 mL diethanolamine in 2.5 L deionized water, adjusting pH to 9.8 with concentrated HCl, and adjusting volume to 4 liters. PnPP stock was prepared fresh by dissoving two 15 mg tablets of para-nitro phenyl phosphate (Sigma, St. Louis, Mo.) in 20 mL diethanolamine buffer.
B-DRE (sequence ID 2) and DRE-D (sequence ID 1) were hybridized as described above. Cytosol was prepared as described above. Thirty five mL of cytosol was thawed and pooled. The cytosol was divided into two 17 mL aliquots and treated with either 17 uL DMSO, sample labled (-) or 17 uL 10 uM TCDD in DMSO with the sample labled (+). DMSO-treated cytosol (1700 uL) was mixed with 10.6 uL hybridized DRE (sample labeled B-). TCDD-treated cytosol (1700 uL) was mixed with 10.6 uL hybridized DRE (sample labeled B+).
A neutravidin-coated 96 well ELISA plate (Pierce), with the standard 12×8 well matrix, labeled 1-12 horizontally and A-H vertically, was warmed to room temperature. DMSO treated cytosol (-) was put in wells A2-A12 x D2-D12 at 200 uL per well. TCDD treated cytosol (+) was put in wells E2-E12 x H2-H12 at 200 uL per well. Untreated Cytosol plus DRE sample (B-), 400 uL per well, was put in wells A1-D1. Treated Cytosol sample plus DRE (13+), 400 uL per well, was put in wells […]. The Untreated cytosol plus DRE sample (B-) and treated cytosol sample plus DRE (B+) were then serially diluted 1:1 across the plate, resulting in a serial dilution of DRE in either 200 uL treated or 200 uL untreated cytosol. The last column (A12H12) contained 400 uL, so 200 uL of that was discarded. Highest dilution of DRE in column A1-H1 was arbitrarily called 1, with the other dilutions labeled 0.5, 0.25 . . . 0.0005 respectively.
The ELISA plate was incubated with gentle rocking for 2 hours to allow the transformaton of Ah receptor, binding of Ah receptor with ARNT, and binding of the Ah receptor/ARNT complex to the biotinylated DRE, and binding of the biotinylated DRE to the neutravidin bound to the ELISA plate.
After 2 hours the plate was washed 3 times with 300 uL PBS plus 0.02% tween 20 and 400 uL of the working dilution of anti-ARNT added to rows A1-A12 and E1-E12 of the ELISA plate. 200 uL of PBS plus 0.02% tween 20 plus 0.1% bovine serum albumin was added to the remaining wells. […] After 2 hours the plate was washed as before and working dilution (1:1000) of anti-rabbit/alkaline phosphatase conjugate was added to all wells. The plate was incubated for a further 1 hour at room temperature with gentle rocking and then washed as before. PnPP stock was added to each well (200 uL) and the plate was incubated for 1 hour, at which time it was read at 405 nm in an ELISA plate reader and milli O.D. recorded.

transformed Ah receptor/ARNT complex, sequence (Q6J287 1-846): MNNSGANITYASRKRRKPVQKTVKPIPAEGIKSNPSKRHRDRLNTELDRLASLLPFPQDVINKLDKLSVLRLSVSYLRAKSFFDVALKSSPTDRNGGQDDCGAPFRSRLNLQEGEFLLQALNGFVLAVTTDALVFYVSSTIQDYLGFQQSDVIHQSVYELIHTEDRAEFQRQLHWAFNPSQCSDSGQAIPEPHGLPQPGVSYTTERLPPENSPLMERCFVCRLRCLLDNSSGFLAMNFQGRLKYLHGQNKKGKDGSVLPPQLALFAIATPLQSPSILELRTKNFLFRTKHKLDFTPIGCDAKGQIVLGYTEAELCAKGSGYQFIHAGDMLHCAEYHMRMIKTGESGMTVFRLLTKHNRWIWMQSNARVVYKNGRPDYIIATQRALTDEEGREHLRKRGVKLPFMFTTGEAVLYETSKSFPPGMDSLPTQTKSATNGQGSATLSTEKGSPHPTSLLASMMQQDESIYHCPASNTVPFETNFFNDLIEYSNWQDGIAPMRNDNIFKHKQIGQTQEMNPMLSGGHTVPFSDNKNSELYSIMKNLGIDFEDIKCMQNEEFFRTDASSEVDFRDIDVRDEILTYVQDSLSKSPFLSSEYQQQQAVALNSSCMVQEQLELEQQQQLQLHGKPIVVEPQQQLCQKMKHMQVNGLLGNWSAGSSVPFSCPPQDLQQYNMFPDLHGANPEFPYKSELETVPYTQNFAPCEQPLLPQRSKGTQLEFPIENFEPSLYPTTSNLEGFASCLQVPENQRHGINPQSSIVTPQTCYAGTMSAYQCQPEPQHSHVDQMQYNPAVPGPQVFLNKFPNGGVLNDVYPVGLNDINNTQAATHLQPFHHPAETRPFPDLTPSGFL
transformed Ah receptor/ARNT complex, sequence (Q0WXX3 1-790 partner): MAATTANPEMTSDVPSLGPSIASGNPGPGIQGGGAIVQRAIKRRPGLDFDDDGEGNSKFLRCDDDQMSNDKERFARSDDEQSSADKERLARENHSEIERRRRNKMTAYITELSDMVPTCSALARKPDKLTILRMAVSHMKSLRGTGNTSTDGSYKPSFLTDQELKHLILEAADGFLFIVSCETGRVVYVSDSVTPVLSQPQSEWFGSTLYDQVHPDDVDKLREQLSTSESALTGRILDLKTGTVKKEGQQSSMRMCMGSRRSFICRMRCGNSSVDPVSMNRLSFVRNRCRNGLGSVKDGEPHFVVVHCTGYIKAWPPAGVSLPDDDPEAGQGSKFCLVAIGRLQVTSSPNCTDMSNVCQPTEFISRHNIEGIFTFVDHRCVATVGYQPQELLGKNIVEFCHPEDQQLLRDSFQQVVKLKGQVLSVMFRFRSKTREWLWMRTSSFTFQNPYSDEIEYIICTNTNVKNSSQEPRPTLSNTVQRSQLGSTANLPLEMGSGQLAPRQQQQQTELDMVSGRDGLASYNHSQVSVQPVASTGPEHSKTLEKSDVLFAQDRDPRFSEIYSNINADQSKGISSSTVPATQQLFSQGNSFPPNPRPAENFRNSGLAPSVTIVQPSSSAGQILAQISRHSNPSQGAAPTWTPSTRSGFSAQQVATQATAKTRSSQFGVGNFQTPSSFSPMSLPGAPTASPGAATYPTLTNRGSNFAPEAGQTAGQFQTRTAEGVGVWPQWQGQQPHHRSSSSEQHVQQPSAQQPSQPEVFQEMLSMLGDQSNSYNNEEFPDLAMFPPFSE

Clc1cc2c(cc1Cl)Oc1cc(Cl)c(Cl)cc1O2 [TCDD, 2,3,7,8-tetrachlorodibenzo-p-dioxin]
ARNT band in size exclusion fraction 3 ([1]; sample B (TCDD) vs sample A (DMSO), anti-ARNT blot): showed a band at the size of ARNT (circa 97 kD) that was absent in fraction 3 of sample A | rabbit IgG light chain (anti-ARNT) band in size exclusion fraction 5 ([1]; sample D (TCDD) vs sample C (DMSO), anti-rabbit blot): showed a band at the size of rabbit IgG light chain (circa 25 kD) that was absent in fraction 5 of sample C | response in sandwich ELISA ([2]; Example 7 conclusion): gives a differential response | O.D. at 405 nm ([2]; anti-ARNT dilution 0.000625, DRE dilution 0.002, TCDD (+)): 463 milli O.D. | O.D. at 405 nm ([2]; anti-ARNT dilution 0.000625, DRE dilution 0.004, TCDD (+)): 595 milli O.D. | O.D. at 405 nm ([2]; anti-ARNT dilution 0.000625, DRE dilution 0.008, TCDD (+)): 726 milli O.D. | O.D. at 405 nm ([2]; anti-ARNT dilution 0.000625, DRE dilution 0.016, TCDD (+)): 639 milli O.D. | O.D. at 405 nm ([2]; anti-ARNT dilution 0.000625, DRE dilution 0.031, TCDD (+)): 562 milli O.D. | O.D. at 405 nm ([2]; anti-ARNT dilution 0.000625, DRE dilution 0.063, TCDD (+)): 480 milli O.D. | O.D. at 405 nm ([2]; anti-ARNT dilution 0.000625, DRE dilution 0.125, TCDD (+)): 411 milli O.D. | O.D. at 405 nm ([2]; anti-ARNT dilution 0.000625, DRE dilution 0.25, TCDD (+)): 392 milli O.D. | O.D. at 405 nm ([2]; anti-ARNT dilution 0.000625, DRE dilution 0.5, TCDD (+)): 393 milli O.D. | O.D. at 405 nm ([2]; anti-ARNT dilution 0.000625, DRE dilution 1, TCDD (+)): 408 milli O.D. | O.D. at 405 nm ([2]; anti-ARNT dilution 0.000625, DRE dilution 1E-03, TCDD (+)): 442 milli O.D. | O.D. at 405 nm ([2]; anti-ARNT dilution 0.000625, DRE dilution 5E-04, TCDD (+)): 480 milli O.D. | O.D. at 405 nm ([2]; anti-ARNT dilution 0.00125, DRE dilution 0.002, TCDD (+)): 595 milli O.D. | O.D. at 405 nm ([2]; anti-ARNT dilution 0.00125, DRE dilution 0.004, TCDD (+)): 932 milli O.D. | O.D. at 405 nm ([2]; anti-ARNT dilution 0.00125, DRE dilution 0.008, TCDD (+)): 1070 milli O.D. | O.D. at 405 nm ([2]; anti-ARNT dilution 0.00125, DRE dilution 0.016, TCDD (+)): 916 milli O.D. | O.D. at 405 nm ([2]; anti-ARNT dilution 0.00125, DRE dilution 0.031, TCDD (+)): 767 milli O.D. | O.D. at 405 nm ([2]; anti-ARNT dilution 0.00125, DRE dilution 0.063, TCDD (+)): 537 milli O.D. | O.D. at 405 nm ([2]; anti-ARNT dilution 0.00125, DRE dilution 0.125, TCDD (+)): 487 milli O.D. | O.D. at 405 nm ([2]; anti-ARNT dilution 0.00125, DRE dilution 0.25, TCDD (+)): 406 milli O.D. | O.D. at 405 nm ([2]; anti-ARNT dilution 0.00125, DRE dilution 0.5, TCDD (+)): 393 milli O.D. | O.D. at 405 nm ([2]; anti-ARNT dilution 0.00125, DRE dilution 1, TCDD (+)): 387 milli O.D. | O.D. at 405 nm ([2]; anti-ARNT dilution 0.00125, DRE dilution 1E-03, TCDD (+)): 484 milli O.D. | O.D. at 405 nm ([2]; anti-ARNT dilution 0.00125, DRE dilution 5E-04, TCDD (+)): 498 milli O.D. | O.D. at 405 nm ([2]; anti-ARNT dilution 0.0025, DRE dilution 0.002, TCDD (+)): 922 milli O.D. | O.D. at 405 nm ([2]; anti-ARNT dilution 0.0025, DRE dilution 0.004, TCDD (+)): 1281 milli O.D. | O.D. at 405 nm ([2]; anti-ARNT dilution 0.0025, DRE dilution 0.008, TCDD (+)): 1682 milli O.D. | O.D. at 405 nm ([2]; anti-ARNT dilution 0.0025, DRE dilution 0.016, TCDD (+)): 1486 milli O.D. | O.D. at 405 nm ([2]; anti-ARNT dilution 0.0025, DRE dilution 0.031, TCDD (+)): 1125 milli O.D. | O.D. at 405 nm ([2]; anti-ARNT dilution 0.0025, DRE dilution 0.063, TCDD (+)): 804 milli O.D. | O.D. at 405 nm ([2]; anti-ARNT dilution 0.0025, DRE dilution 0.125, TCDD (+)): 608 milli O.D. | O.D. at 405 nm ([2]; anti-ARNT dilution 0.0025, DRE dilution 0.25, TCDD (+)): 532 milli O.D. | O.D. at 405 nm ([2]; anti-ARNT dilution 0.0025, DRE dilution 0.5, TCDD (+)): 544 milli O.D. | O.D. at 405 nm ([2]; anti-ARNT dilution 0.0025, DRE dilution 1, TCDD (+)): 585 milli O.D. | O.D. at 405 nm ([2]; anti-ARNT dilution 0.0025, DRE dilution 1E-03, TCDD (+)): 680 milli O.D. | O.D. at 405 nm ([2]; anti-ARNT dilution 0.0025, DRE dilution 5E-04, TCDD (+)): 722 milli O.D. | O.D. at 405 nm ([2]; anti-ARNT dilution 0.005, DRE dilution 0.002, TCDD (+)): 1524 milli O.D. | O.D. at 405 nm ([2]; anti-ARNT dilution 0.005, DRE dilution 0.004, TCDD (+)): 2029 milli O.D. | O.D. at 405 nm ([2]; anti-ARNT dilution 0.005, DRE dilution 0.008, TCDD (+)): 2558 milli O.D. | O.D. at 405 nm ([2]; anti-ARNT dilution 0.005, DRE dilution 0.016, TCDD (+)): 2122 milli O.D. | O.D. at 405 nm ([2]; anti-ARNT dilution 0.005, DRE dilution 0.031, TCDD (+)): 1706 milli O.D. | O.D. at 405 nm ([2]; anti-ARNT dilution 0.005, DRE dilution 0.063, TCDD (+)): 1202 milli O.D. | O.D. at 405 nm ([2]; anti-ARNT dilution 0.005, DRE dilution 0.125, TCDD (+)): 963 milli O.D. | O.D. at 405 nm ([2]; anti-ARNT dilution 0.005, DRE dilution 0.25, TCDD (+)): 777 milli O.D. | O.D. at 405 nm ([2]; anti-ARNT dilution 0.005, DRE dilution 0.5, TCDD (+)): 765 milli O.D. | O.D. at 405 nm ([2]; anti-ARNT dilution 0.005, DRE dilution 1, TCDD (+)): 771 milli O.D. | O.D. at 405 nm ([2]; anti-ARNT dilution 0.005, DRE dilution 1E-03, TCDD (+)): 1070 milli O.D. | O.D. at 405 nm ([2]; anti-ARNT dilution 0.005, DRE dilution 5E-04, TCDD (+)): 1191 milli O.D.
